Assay results: patent publication US20090075951A1, “Methods and Reagents for the Treatment of Inflammatory Disorders” (CombinatoRx, Inc., priority 2003, published 2009)
Where two headings read alike, the source gives them in different places.

Tested on: TNFα secretion from PMA/ionomycin stimulated white blood cells from human buffy coat
Test: TNFα secretion assay, PMA/ionomycin stimulation
Protocol: Various concentrations of each test compound were added at the time of stimulation. […] After the plate was washed with 0.1% Tween 20/PBS, an HRP-luminescent substrate was added to each well and light intensity measured using a LJL Analyst plate luminometer.

`C[C@H]1C[C@H]2[C@@H]3CCC4=CC(=O)C=C[C@]4(C)[C@@]3(F)[C@@H](O)C[C@]2(C)[C@@]1(O)C(=O)CO` [Betamethasone] was tested, and the inhibition at […] (read-out: inhibition of TNFα secretion, Betamethasone 38 nM, Imipramine nM: 0, 99, 394, 1578, 6311, 25000) was 35.8%, the inhibition at […] (read-out: inhibition of TNFα secretion, Betamethasone 38 nM, Nortriptyline nM: 0, 52, 208, 834, 3336, 13000) was 9.93% and the inhibition at 2.434 µM (read-out: inhibition of TNFα secretion, Betamethasone 2434 nM, Nortriptyline nM: 0, 52, 208, 834, 3336, 13000) was 38.9%. The inhibition at […] (read-out: percent inhibition of TNFα secretion, Betamethasone 38 nM, Amoxapine nM: 0, 12, 50, 199, 797, 3187) was 26.3%, the inhibition at […] (read-out: percent inhibition of TNFα secretion, Betamethasone 38 nM, Clomipramine nM: 0, 45, 178, 712, 2848, 11000) was 36% and the inhibition at […] (read-out: percent inhibition of TNFα secretion, Betamethasone 38 nM, Desipramine nM: 0, 50, 200, 799, 3197, 13000) was 17.3%. It also gave an inhibition at 2.434 µM (read-out: percent inhibition of TNFα secretion, Betamethasone 2434 nM, Desipramine nM: 0, 50, 200, 799, 3197, 13000) of 48.9%.
For `CCCC1O[C@@H]2C[C@H]3[C@@H]4CCC5=CC(=O)C=C[C@]5(C)[C@H]4[C@@H](O)C[C@]3(C)[C@]2(C(=O)CO)O1` (stereo partly drawn) [Budesonide, budesonide], the inhibition at […] (read-out: inhibition of TNFα secretion, Budesonide 35 nM, Imipramine nM: 0, 99, 394, 1578, 6311, 25000) was 42.1%, the inhibition at […] (read-out: inhibition of TNFα secretion, Budesonide 35 nM, Nortriptyline nM: 0, 52, 208, 834, 3336, 13000) was 36% and the inhibition at […] (read-out: inhibition of TNFα secretion, Budesonide 35 nM, Protriptyline nM: 0, 52, 208, 834, 3336, 13000) was 44.5%. For the same compound, the inhibition at […] (read-out: percent inhibition of TNFα secretion, Budesonide 35 nM, Amitriptyline nM: 0, 50, 199, 796, 3186, 13000) was 42%, the inhibition at […] (read-out: percent inhibition of TNFα secretion, Budesonide 35 nM, Amoxapine nM: 0, 12, 50, 199, 797, 3187) was 36.7% and the inhibition at […] (read-out: percent inhibition of TNFα secretion, Budesonide 35 nM, Clomipramine nM: 0, 45, 178, 712, 2848, 11000) was 45.3%. The inhibition at […] (read-out: percent inhibition of TNFα secretion, Budesonide 35 nM, Desipramine nM: 0, 50, 200, 799, 3197, 13000) was 48.1%.
In the case of `C[C@@H]1C[C@H]2[C@@H]3CCC4=CC(=O)C=C[C@]4(C)[C@@]3(F)[C@@H](O)C[C@]2(C)[C@@]1(O)C(=O)CO` [Dexamethasone, dexamethasone], the inhibition at […] (read-out: inhibition of TNFα secretion, Dexamethasone 38 nM, Desipramine nM: 0, 50, 200, 799, 3197, 13000) was 31.3%, the inhibition at […] (read-out: inhibition of TNFα secretion, Dexamethasone 38 nM, Imipramine nM: 0, 99, 394, 1578, 6311, 25000) was 30% and the inhibition at […] (read-out: inhibition of TNFα secretion, Dexamethasone 38 nM, Nortriptyline nM: 0, 52, 208, 834, 3336, 13000) was 31%. It also gave an inhibition at […] (read-out: percent inhibition of TNFα secretion, Dexamethasone 38 nM, Amitriptyline nM: 0, 50, 199, 796, 3186, 13000) of 31.1%, an inhibition at […] (read-out: percent inhibition of TNFα secretion, Dexamethasone 38 nM, Amoxapine nM: 0, 12, 50, 199, 797, 3187) of 32% and an inhibition at […] (read-out: percent inhibition of TNFα secretion, Dexamethasone 38 nM, Clomipramine nM: 0, 45, 178, 712, 2848, 11000) of 35.6%.
With `CC(=O)OCC(=O)[C@@]1(OC(C)=O)[C@@H](C)C[C@H]2[C@@H]3C[C@H](F)C4=CC(=O)C=C[C@]4(C)[C@@]3(F)[C@@H](O)C[C@@]21C` [Diflorasone Diacetate] the inhibition at 0.03 µM (read-out: inhibition of TNFα secretion, Diflorasone Diacetate 30 nM, Desipramine nM: 0, 50, 200, 799, 3197, 13000) was 25.4%, the inhibition at 0.03 µM (read-out: inhibition of TNFα secretion, Diflorasone Diacetate 30 nM, Imipramine nM: 0, 99, 394, 1578, 6311, 25000) was 29.6% and the inhibition at 0.03 µM (read-out: inhibition of TNFα secretion, Diflorasone Diacetate 30 nM, Protriptyline nM: 0, 52, 208, 834, 3336, 13000) was 28.2%. The inhibition at 1.941 µM (read-out: inhibition of TNFα secretion, Diflorasone Diacetate 1941 nM, Desipramine nM: 0, 50, 200, 799, 3197, 13000) was 46.9%, the inhibition at 1.941 µM (read-out: inhibition of TNFα secretion, Diflorasone Diacetate 1941 nM, Imipramine nM: 0, 99, 394, 1578, 6311, 25000) was 45.8% and the inhibition at 1.941 µM (read-out: inhibition of TNFα secretion, Diflorasone Diacetate 1941 nM, Protriptyline nM: 0, 52, 208, 834, 3336, 13000) was 45.3%. The inhibition at 0.03 µM (read-out: percent inhibition of TNFα secretion, Diflorasone Diacetate 30 nM, Amitriptyline nM: 0, 50, 199, 796, 3186, 13000) was 26.1%, the inhibition at […] (read-out: percent inhibition of TNFα secretion, Diflorasone Diacetate 38 nM, Clomipramine nM by grid row: r5 0, r6 12, r7 50, r8 199, r9 797, r10 3187) was 43.2% and the inhibition at 1.941 µM (read-out: percent inhibition of TNFα secretion, Diflorasone Diacetate 1941 nM, Amitriptyline nM: 0, 50, 199, 796, 3186, 13000) was 45.2%.
`C[C@]12CCC(=O)C=C1CC[C@@H]1[C@@H]2[C@@H](O)C[C@@]2(C)[C@H]1CC[C@]2(O)C(=O)CO` [Hydrocortisone, hydrocortisone] was tested, and the inhibition at […] (read-out: inhibition of TNFα secretion, Hydrocortisone 21 nM, Desipramine nM: 0, 50, 200, 799, 3197, 13000) was -1.79%, the inhibition at […] (read-out: inhibition of TNFα secretion, Hydrocortisone 21 nM, Imipramine nM: 0, 99, 394, 1578, 6311, 25000) was -4.17% and the inhibition at […] (read-out: inhibition of TNFα secretion, Hydrocortisone 21 nM, Nortriptyline nM: 0, 52, 208, 834, 3336, 13000) was 4.44%. The inhibition at […] (read-out: inhibition of TNFα secretion, Hydrocortisone 21 nM, Protriptyline nM: 0, 52, 208, 834, 3336, 13000) was 2.86%, the inhibition at […] (read-out: inhibition of TNFα secretion, Hydrocortisone 83 nM, Desipramine nM: 0, 50, 200, 799, 3197, 13000) was 9.01% and the inhibition at […] (read-out: inhibition of TNFα secretion, Hydrocortisone 83 nM, Imipramine nM: 0, 99, 394, 1578, 6311, 25000) was 5.91%. For the same compound, the inhibition at […] (read-out: inhibition of TNFα secretion, Hydrocortisone 83 nM, Nortriptyline nM: 0, 52, 208, 834, 3336, 13000) was 13.6%, the inhibition at […] (read-out: inhibition of TNFα secretion, Hydrocortisone 83 nM, Protriptyline nM: 0, 52, 208, 834, 3336, 13000) was 13.6% and the inhibition at 1.324 µM (read-out: inhibition of TNFα secretion, Hydrocortisone 1324 nM, Desipramine nM: 0, 50, 200, 799, 3197, 13000) was 34.4%. It also gave an inhibition at 1.324 µM (read-out: inhibition of TNFα secretion, Hydrocortisone 1324 nM, Imipramine nM: 0, 99, 394, 1578, 6311, 25000) of 30.3%, an inhibition at 1.324 µM (read-out: inhibition of TNFα secretion, Hydrocortisone 1324 nM, Nortriptyline nM: 0, 52, 208, 834, 3336, 13000) of 35.7% and an inhibition at 1.324 µM (read-out: inhibition of TNFα secretion, Hydrocortisone 1324 nM, Protriptyline nM: 0, 52, 208, 834, 3336, 13000) of 36.8%. For the same compound, the inhibition at 5.297 µM (read-out: inhibition of TNFα secretion, Hydrocortisone 5297 nM, Desipramine nM: 0, 50, 200, 799, 3197, 13000) was 38.6%, the inhibition at 5.297 µM (read-out: inhibition of TNFα secretion, Hydrocortisone 5297 nM, Imipramine nM: 0, 99, 394, 1578, 6311, 25000) was 33.8% and the inhibition at 5.297 µM (read-out: inhibition of TNFα secretion, Hydrocortisone 5297 nM, Nortriptyline nM: 0, 52, 208, 834, 3336, 13000) was 36.5%. The inhibition at 5.297 µM (read-out: inhibition of TNFα secretion, Hydrocortisone 5297 nM, Protriptyline nM: 0, 52, 208, 834, 3336, 13000) was 38.2%, the inhibition at […] (read-out: percent inhibition of TNFα secretion, Hydrocortisone 21 nM, Amitriptyline nM: 0, 50, 199, 796, 3186, 13000) was -2.95% and the inhibition at […] (read-out: percent inhibition of TNFα secretion, Hydrocortisone 21 nM, Amoxapine nM: 0, 12, 50, 199, 797, 3187) was 1.78%. For the same compound, the inhibition at […] (read-out: percent inhibition of TNFα secretion, Hydrocortisone 21 nM, Clomipramine nM: 0, 45, 178, 712, 2848, 11000) was -0.248%, the inhibition at […] (read-out: percent inhibition of TNFα secretion, Hydrocortisone 83 nM, Amitriptyline nM: 0, 50, 199, 796, 3186, 13000) was 5.95% and the inhibition at […] (read-out: percent inhibition of TNFα secretion, Hydrocortisone 83 nM, Amoxapine nM: 0, 12, 50, 199, 797, 3187) was 11.4%. It also gave an inhibition at […] (read-out: percent inhibition of TNFα secretion, Hydrocortisone 83 nM, Clomipramine nM: 0, 45, 178, 712, 2848, 11000) of 9.9%, an inhibition at 1.324 µM (read-out: percent inhibition of TNFα secretion, Hydrocortisone 1324 nM, Amitriptyline nM: 0, 50, 199, 796, 3186, 13000) of 32.2% and an inhibition at 1.324 µM (read-out: percent inhibition of TNFα secretion, Hydrocortisone 1324 nM, Amoxapine nM: 0, 12, 50, 199, 797, 3187) of 31.6%. The inhibition at 1.324 µM (read-out: percent inhibition of TNFα secretion, Hydrocortisone 1324 nM, Clomipramine nM: 0, 45, 178, 712, 2848, 11000) was 33%, the inhibition at 5.297 µM (read-out: percent inhibition of TNFα secretion, Hydrocortisone 5297 nM, Amitriptyline nM: 0, 50, 199, 796, 3186, 13000) was 36.9% and the inhibition at 5.297 µM (read-out: percent inhibition of TNFα secretion, Hydrocortisone 5297 nM, Amoxapine nM: 0, 12, 50, 199, 797, 3187) was 31.9%. For the same compound, the inhibition at 5.297 µM (read-out: percent inhibition of TNFα secretion, Hydrocortisone 5297 nM, Clomipramine nM: 0, 45, 178, 712, 2848, 11000) was 37.1%.
